Data reported in US6313309A, “4-thionaphthyl--1H--imidazoles which are usefulα22-adrenoceptoR agonists/ antagonists” (Ortho-McNeil Pharmaceutical, Inc., priority 1999, dated 2001).

The molecules below were run against T1, Alpha-2D Adrenergic Receptor (Rattus norvegicus, UniProt P22909) (assay: Alpha-2D Adrenergic Receptor Binding Assay (3H-para-aminoclonidine, rat cortex membranes)). Settings: rat cortex synaptic membranes, 25° C., 20 min, read-out: α-2D Binding Ki.
T1 construct: aliquots of the synaptic membrane fraction; from tissue; host or cells: rat cerebral cortex, synaptic membrane fraction (male Wistar rats)
T1 sequence (P22909 1-465): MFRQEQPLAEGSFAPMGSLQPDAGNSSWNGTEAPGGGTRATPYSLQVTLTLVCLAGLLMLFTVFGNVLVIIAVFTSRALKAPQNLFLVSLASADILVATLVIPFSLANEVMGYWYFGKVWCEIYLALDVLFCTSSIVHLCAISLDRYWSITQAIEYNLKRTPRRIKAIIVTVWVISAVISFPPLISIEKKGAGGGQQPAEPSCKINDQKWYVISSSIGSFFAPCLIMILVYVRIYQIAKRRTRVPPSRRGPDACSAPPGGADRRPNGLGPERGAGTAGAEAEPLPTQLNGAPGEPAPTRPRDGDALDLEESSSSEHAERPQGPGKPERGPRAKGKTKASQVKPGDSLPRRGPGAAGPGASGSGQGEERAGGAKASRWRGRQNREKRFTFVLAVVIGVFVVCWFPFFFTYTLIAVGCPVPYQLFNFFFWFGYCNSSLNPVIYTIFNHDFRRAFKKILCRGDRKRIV
Experimental: Male, Wistar rats (150-250 g, VAF, Charles River, Kingston, N.Y.) are sacrificed by cervical dislocation and their brains removed and placed immediately in ice cold HEPES buffered sucrose. The cortex is dissected out and homogenized in 20 volumes of HEPES sucrose in a Teflon™-glass homogenizer. The homogenate is centrifuged at 1000 g for 10 min, and the resulting supernatant centrifuged at 42,000 g for 10 min. The resulting pellet is resuspended in 30 volumes of 3 mM potassium phosphate buffer, pH 7.5, preincubated at 25° C. for 30 min and recentrifuged. The resulting pellet is resuspended as described above and used for the receptor binding assay. Incubation is performed in test tubes containing phosphate buffer, 2.5 mM MgCl2, aliquots of the synaptic membrane fraction, the ligand ^3 H-para-aminoclonidine and test drug at 25° C. for 20 min. The incubation is terminated by filtration of the tube contents through glass fiber filter sheets. Following washing of the sheets with 10 mM HEPES buffer, the adhering radioactivity is quantified by liquid scintillation spectrometry.
Binding of the test drug to the receptor is determined by comparing the amount of radiolabeled ligand bound in control tubes without drug to the amount of radiolabeled ligand bound in the presence of the drug. Dose-response data are analyzed with LIGAND, a nonlinear curve fitting program designed specifically for the analysis of ligand binding data. This assay is described by Simmons, R. M. A., and Jones, D. J., Binding of [^3 H-]prazosin and [^3 H]p-aminoclonidine to (α-Adrenoceptors in Rat Spinal Cord, Brain Research 445:338-349, 1988.

Compared with C1=C(c2c[nH]cn2)c2sccc2CC1 [Cp-7], C1=C(c2c[nH]cn2)c2ccsc2CC1 [Cp-2, 4-(4-Imidazoyl)-6,7-dihydrothianapthene Perchlorate] is 2-fold lower in Ki: 3 nM for the first, 1.5 nM for the second. The second binds more tightly here.

Going from c1nc(C2CCCc3sccc32)c[nH]1 (stereo not shown) [Cp-3, 4-(4-Imidazoyl)-4,5,6,7-tetrahydrothianapthene Perchlorate] to c1nc(C2CCCc3ccsc32)c[nH]1 (stereo not shown) [Cp-6], the Ki falls from 0.56 nM to 0.35 nM (1.6-fold).

Cc1sc(C)c2c1CCCC2c1c[nH]cn1.O=C(O)/C=C\C(=O)O (stereo not shown) [Cp-5, 4-(1,3-Dimethyl-4,5,6,7-tetrahydrobenzo[c]thiophene-4-yl)-1H-imidazole (Z)-2-Butenedioate] and c1cc(-c2c[nH]cn2)c2ccsc2c1 [Cp-1, 4-(Thionaphth-4-yl)-1H-imidazole (Z)-2-butenedioate] are within 1.5-fold of each other in Ki: 2.9 nM for the first, 2.6 nM for the second.

Same assay, conditions: rat cortex synaptic membranes, value in parentheses, not explained, read-out: α-2D Binding Ki (second value, in parentheses)

Work on Cc1sc(C)c2c1CCC=C2c1c[nH]cn1 [Cp-4, 4-(1,3-Dimethyl-6,7-dihydrobenzo[c]thiophene-4-yl)-1H-imidazole(Z)-2-Butenedioate] yielded a Ki of 1.2 nM.

What follows are molecules tested on abdominal constriction response (assay: Mouse Acetylcholine Bromide-Induced Abdominal Constriction Assay (MAIT)). Settings: 30 mg/kg po; 5.5 mg/kg i.p. acetylcholine bromide 30 minutes later; ten minute observation.
Format: in vivo
Experimental: The mouse acetylcholine bromide-induced abdominal constriction assay, is described by Collier et al. in Brit. J. Pharmacol. Chem. Ther., 32: 295-310, 1968, with minor modifications was used to assess analgesic potency of the compounds herein. The test drugs or appropriate vehicle were administered orally (p.o.) and 30 minutes later the animal received an intraperitoneal (i.p.) injection of 5.5 mg/kg acetylcholine bromide (Matheson, Coleman and Bell, East Rutherford, N.J.). The mice were then placed in groups of three into glass bell jars and observed for a ten minute observation period for the occurrence of an abdominal constriction response (defined as a wave of constriction and elongation passing caudally along the abdominal wall, accompanied by a twisting of the trunk and followed by extension of the hind limbs). The percent inhibition of this response to a nociceptive stimulus (equated to % analgesia) was calculated as follows: The % Inhibition of response, i.e., % analgesia is equal to the difference between the number of control animals responding and the number of drug-treated animals responding times 100 divided by the number of control animals responding.
At least 15 animals were used for control and in each of the drug treated groups. At least three doses were used to determine each dose response curve and ED50 (that dose which would produce 50% analgesia). The ED50 values and their 95% fiducial limits were determined by a computer assisted probit analysis.

Going from C1=C(c2c[nH]cn2)c2sccc2CC1 [Cp-7] to C1=C(c2c[nH]cn2)c2ccsc2CC1 [Cp-2, 4-(4-Imidazoyl)-6,7-dihydrothianapthene Perchlorate], the “MAIT Activity % Inhibition” value rises from 60% to 100%.

Going from c1nc(C2CCCc3sccc32)c[nH]1 (stereo not shown) [Cp-3, 4-(4-Imidazoyl)-4,5,6,7-tetrahydrothianapthene Perchlorate] to c1cc(-c2c[nH]cn2)c2ccsc2c1 [Cp-1, 4-(Thionaphth-4-yl)-1H-imidazole (Z)-2-butenedioate], the “MAIT Activity % Inhibition” value falls from 100% to 73%.

Compared with Cc1sc(C)c2c1CCCC2c1c[nH]cn1.O=C(O)/C=C\C(=O)O (stereo not shown) [Cp-5, 4-(1,3-Dimethyl-4,5,6,7-tetrahydrobenzo[c]thiophene-4-yl)-1H-imidazole (Z)-2-Butenedioate], Cc1sc(C)c2c1CCC=C2c1c[nH]cn1 [Cp-4, 4-(1,3-Dimethyl-6,7-dihydrobenzo[c]thiophene-4-yl)-1H-imidazole(Z)-2-Butenedioate] is lower in “MAIT Activity % Inhibition” value: 93% for the first, 40% for the second.
